3 compounds from patent US4904660A, “Histidine derivatives as superior renin inhibitors” (Yamanouchi Pharmaceutical Co., Ltd., priority 1987, dated 1990) can be followed below.

The target of the test is T1, human plasma renin (Homo sapiens, UniProt P00797).
T1 construct: Into human plasma; from tissue; host or cells: human plasma
T1 sequence (P00797 67-406): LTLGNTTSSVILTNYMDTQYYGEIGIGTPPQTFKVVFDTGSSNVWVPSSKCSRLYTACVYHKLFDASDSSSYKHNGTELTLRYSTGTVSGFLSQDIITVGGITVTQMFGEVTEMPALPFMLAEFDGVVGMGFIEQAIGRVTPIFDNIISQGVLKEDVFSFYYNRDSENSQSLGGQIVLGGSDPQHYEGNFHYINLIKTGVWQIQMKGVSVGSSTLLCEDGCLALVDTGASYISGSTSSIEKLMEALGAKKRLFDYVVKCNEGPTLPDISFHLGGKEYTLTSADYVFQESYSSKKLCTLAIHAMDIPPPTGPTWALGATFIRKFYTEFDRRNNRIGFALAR
The experiment in a line: Inhibiting effect to human plasma renin. The format is biochemical. Conditions: angiotensin I formation by radio-immunoassay, 37° C., 2 hours, pH4.6, read-out: IC50 /human plasma (50% inhibiting concentration). The method, then:
(1) Inhibiting effect to human plasma renin.
Into human plasma (250 μl) having 0.5 ng/ml/hr (37° C.)-angiotensin I forming activity was added 225 μl of an enzyme-inhibitor (BAL, […], pH4.6) and 25 μl of a solution of the test compound in dimethylsulfoxide, and the mixture was stirred. Some portion of the stirred mixture was subjected to incubation at 37° C. for 2 hours, and the rest of the mixture was left at 4° C. Taking 100 μl of each of the mixtures, by measuring the difference of the angiotensin I forming amount by radio-immunoassay at 37° C. and 4° C., the 50% inhibiting concentration IC50 (M) was calculated.
Consider `Cn1nnnc1SCC(O)[C@H](CC1CCCCC1)NC(=O)[C@H](Cc1cnc[nH]1)NC(=O)C(CC(=O)N1CCOCC1)Cc1cccc2ccccc12` (stereo partly drawn) [Example 7, (2RS,3S)-3-[N-[1,4-dioxo-4-morpholino-2-(1-naphthylmethyl)butyl-L-histidylamino)]-4-cyclohexyl-1-(1-methyl-5-tetrazolylthio]-2-butanol], for which the IC50 was 0.5 nM. As for `CC(C)OC(=O)C(O)[C@H](CC1CCCCC1)NC(=O)[C@H](Cc1c[nH]cn1)NC(=O)C(CC(=O)N1CCOCC1)Cc1cccc2ccccc12` (stereo partly drawn) [Example 40], the figure is 4 nM; as for `Cn1nnnc1SCC(O)[C@H](CC1CCCCC1)NC(=O)[C@H](Cc1cnc[nH]1)NC(=O)[C@H](Cc1ccccc1)NC(=O)OC(C)(C)C` (stereo partly drawn) [Example 9], 4 nM.
